Source: ChEMBL document CHEMBL3872221, “Solvent-free synthesis of bacillamide analogues as novel cytotoxic and anti-inflammatory agents” (Eur J Med Chem, 2016)

How the values were obtained:
Rattus norvegicus [1] = assay: Antiinflammatory activity in rat assessed as inhibition of carrageenan-induced hind paw oedema at 50 mg/Kg, po administered 30 mins before carrageenan challenge measured after 4 hrs relative to control; assay type: functional
[2] = Cytotoxicity against human HCT116 cells assessed as cell survival at 10 uM measured after 48 hrs by MTT assay relative to control; assay type: functional; settings: HCT-116, 48 h, read-out: Survival
Rattus norvegicus [3] = assay: Antiinflammatory activity in rat assessed as inhibition of carrageenan-induced hind paw oedema at 50 mg/Kg, po administered 30 mins before carrageenan challenge measured after 2 hrs relative to control; assay type: functional
[4] = Cytotoxicity against human MDA-MB-231 cells assessed as cell survival at 10 uM measured after 48 hrs by MTT assay relative to control; assay type: functional; settings: MDA-MB-231, 48 h, read-out: Survival
[5] = Cytotoxicity against human Jurkat cells assessed as cell survival at 10 uM measured after 48 hrs by MTT assay relative to control; assay type: functional; settings: read-out: Survival
Rattus norvegicus [6] = assay: Antiinflammatory activity in rat assessed as inhibition of carrageenan-induced hind paw oedema at 50 mg/Kg, po administered 30 mins before carrageenan challenge measured after 3 hrs relative to control; assay type: functional
Rattus norvegicus [7] = assay: Antiinflammatory activity in rat assessed as inhibition of carrageenan-induced hind paw edema at 50 mg/Kg, po administered 30 mins before carrageenan challenge measured after 1 hr relative to control; assay type: functional
[8] = Cytotoxicity against human MDA-MB-231 cells assessed as effect on cell viability measured after 48 hrs by MTT assay; assay type: functional, cell-based; settings: MDA-MB-231, 48 h
[9] = Cytotoxicity against human Jurkat cells assessed as effect on cell viability measured after 48 hrs by MTT assay; assay type: functional, cell-based
Jurkat = assay: Induction of apoptosis in human Jurkat cells assessed as activation of caspase 3/7 at 1 uM measured after 48 hrs by fluorescence assay relative to control; assay type: functional
[10] = Cytotoxicity against human HCT116 cells assessed as effect on cell viability measured after 48 hrs by MTT assay; assay type: functional, cell-based; settings: HCT-116, 48 h

For `O=C(NCCc1c[nH]c2ccccc12)c1csc(-c2ccc(Cl)cc2)n1`, the inhibition in vivo at 50 mg/kg (Rattus norvegicus [1]) was 56%, the viability at 10 µM [2] was 99.2% and the inhibition in vivo at 50 mg/kg (Rattus norvegicus [3]) was 63%. For the same compound, the viability at 10 µM [4] was 94.8%, the viability at 10 µM [5] was 84.8% and the inhibition in vivo at 50 mg/kg (Rattus norvegicus [6]) was 62%. It also gave an inhibition in vivo at 50 mg/kg (Rattus norvegicus [7]) of 68%.

In the case of `Cc1ccc(-c2nc(C(=O)NCCc3c[nH]c4ccccc34)cs2)cc1`, the inhibition in vivo at 50 mg/kg (Rattus norvegicus [1]) is reported as 70%, the viability at 10 µM [2] is reported as 108% and the inhibition in vivo at 50 mg/kg (Rattus norvegicus [3]) is reported as 77%. It also gave a viability at 10 µM [4] of 87.3%, a viability at 10 µM [5] of 88.3% and an inhibition in vivo at 50 mg/kg (Rattus norvegicus [6]) of 57%. It also gave an inhibition in vivo at 50 mg/kg (Rattus norvegicus [7]) of 81%.

Work on `Nc1nc(C(=O)NCCc2c[nH]c3ccccc23)cs1` yielded an IC50 [8] of 3000 nM, an IC50 [9] of 3000 nM and an inhibition in vivo at 50 mg/kg (Rattus norvegicus [1]) of 82%. It also gave a viability at 10 µM [2] of 20.3%, an inhibition in vivo at 50 mg/kg (Rattus norvegicus [3]) of 74% and a viability at 10 µM [4] of 24.8%. The viability at 10 µM [5] was 42.3%, the “fold change (FC)” value (Jurkat) was 4 - 5 and the inhibition in vivo at 50 mg/kg (Rattus norvegicus [6]) was 54%. It also gave an inhibition in vivo at 50 mg/kg (Rattus norvegicus [7]) of 86% and an IC50 [10] of 5400 nM.

`Cc1ccc(Nc2nc(C(=O)NCCc3c[nH]c4ccccc34)cs2)cc1` showed an inhibition in vivo at 50 mg/kg (Rattus norvegicus [1]) of 38%, an inhibition in vivo at 50 mg/kg (Rattus norvegicus [3]) of 57% and an inhibition in vivo at 50 mg/kg (Rattus norvegicus [6]) of 46%. For the same compound, the inhibition in vivo at 50 mg/kg (Rattus norvegicus [7]) was 52%.

Compound `O=C(NCCc1c[nH]c2ccccc12)c1csc(Nc2ccc(F)cc2)n1` has an inhibition in vivo at 50 mg/kg (Rattus norvegicus [1]) of 42%, an inhibition in vivo at 50 mg/kg (Rattus norvegicus [3]) of 60% and an inhibition in vivo at 50 mg/kg (Rattus norvegicus [6]) of 59%. The inhibition in vivo at 50 mg/kg (Rattus norvegicus [7]) was 83%.

Work on `O=C(NCCc1c[nH]c2ccccc12)c1csc(Nc2ccccc2)n1` yielded an IC50 [8] of 600 nM, an IC50 [9] of 500 nM and an inhibition in vivo at 50 mg/kg (Rattus norvegicus [1]) of 78%. For the same compound, the viability at 10 µM [2] was 10.3%, the inhibition in vivo at 50 mg/kg (Rattus norvegicus [3]) was 73% and the viability at 10 µM [4] was 20.1%. For the same compound, the viability at 10 µM [5] was 40.1%, the “fold change (FC)” value (Jurkat) was 4 - 5 and the inhibition in vivo at 50 mg/kg (Rattus norvegicus [6]) was 65%. It also gave an inhibition in vivo at 50 mg/kg (Rattus norvegicus [7]) of 77% and an IC50 [10] of 100 nM.

Work on `O=C(NCCc1c[nH]c2ccccc12)c1csc(-c2cccs2)n1` yielded an inhibition in vivo at 50 mg/kg (Rattus norvegicus [1]) of 62%, a viability at 10 µM [2] of 93.9% and an inhibition in vivo at 50 mg/kg (Rattus norvegicus [3]) of 76%. For the same compound, the viability at 10 µM [4] was 85.4%, the viability at 10 µM [5] was 87.7% and the inhibition in vivo at 50 mg/kg (Rattus norvegicus [6]) was 58%. For the same compound, the inhibition in vivo at 50 mg/kg (Rattus norvegicus [7]) was 82%.

In the case of `O=C(NCCc1c[nH]c2ccccc12)c1csc(-c2ccco2)n1`, the inhibition in vivo at 50 mg/kg (Rattus norvegicus [1]) is reported as 46%, the viability at 10 µM [2] is reported as 96.9% and the inhibition in vivo at 50 mg/kg (Rattus norvegicus [3]) is reported as 69%. The viability at 10 µM [4] was 84.4%, the viability at 10 µM [5] was 87.2% and the inhibition in vivo at 50 mg/kg (Rattus norvegicus [6]) was 49%. It also gave an inhibition in vivo at 50 mg/kg (Rattus norvegicus [7]) of 75%.

Work on `O=C(NCCc1c[nH]c2ccccc12)c1csc(Cc2ccccc2)n1` yielded an inhibition in vivo at 50 mg/kg (Rattus norvegicus [1]) of 42%, a viability at 10 µM [2] of 101% and an inhibition in vivo at 50 mg/kg (Rattus norvegicus [3]) of 57%. For the same compound, the viability at 10 µM [4] was 89%, the viability at 10 µM [5] was 87.3% and the inhibition in vivo at 50 mg/kg (Rattus norvegicus [6]) was 45%. For the same compound, the inhibition in vivo at 50 mg/kg (Rattus norvegicus [7]) was 76%.

`O=C(NCCc1c[nH]c2ccccc12)c1csc(-c2ccccc2)n1` gave an inhibition in vivo at 50 mg/kg (Rattus norvegicus [1]) of 57%, a viability at 10 µM [2] of 97.6% and an inhibition in vivo at 50 mg/kg (Rattus norvegicus [3]) of 62%. It also gave a viability at 10 µM [4] of 88.3%, a viability at 10 µM [5] of 87.3% and an inhibition in vivo at 50 mg/kg (Rattus norvegicus [6]) of 25%. The inhibition in vivo at 50 mg/kg (Rattus norvegicus [7]) was 55%.

`O=C(NCCc1c[nH]c2ccccc12)c1csc(Nc2ccc([N+](=O)[O-])cc2)n1` gave an inhibition in vivo at 50 mg/kg (Rattus norvegicus [1]) of 50%, a viability at 10 µM [2] of 72.1% and an inhibition in vivo at 50 mg/kg (Rattus norvegicus [3]) of 59%. It also gave a viability at 10 µM [4] of 92.3%, a viability at 10 µM [5] of 92.5% and an inhibition in vivo at 50 mg/kg (Rattus norvegicus [6]) of 57%. It also gave an inhibition in vivo at 50 mg/kg (Rattus norvegicus [7]) of 66%.

With `O=C(NCCc1c[nH]c2ccccc12)c1csc(Nc2ccc(Cl)cc2)n1` the inhibition in vivo at 50 mg/kg (Rattus norvegicus [1]) was 41%, the inhibition in vivo at 50 mg/kg (Rattus norvegicus [3]) was 59% and the inhibition in vivo at 50 mg/kg (Rattus norvegicus [6]) was 50%. The inhibition in vivo at 50 mg/kg (Rattus norvegicus [7]) was 49%.

`Cc1nc(C(=O)NCCc2c[nH]c3ccccc23)cs1` showed an inhibition in vivo at 50 mg/kg (Rattus norvegicus [1]) of 50%, a viability at 10 µM [2] of 97% and an inhibition in vivo at 50 mg/kg (Rattus norvegicus [3]) of 60%. The viability at 10 µM [4] was 90.4%, the viability at 10 µM [5] was 88.1% and the inhibition in vivo at 50 mg/kg (Rattus norvegicus [6]) was 44%. The inhibition in vivo at 50 mg/kg (Rattus norvegicus [7]) was 63%.

`O=C(NCCc1c[nH]c2ccccc12)c1csc(Nc2ccc(Br)cc2)n1` gave an inhibition in vivo at 50 mg/kg (Rattus norvegicus [1]) of 46%, a viability at 10 µM [2] of 55.3% and an inhibition in vivo at 50 mg/kg (Rattus norvegicus [3]) of 54%. The viability at 10 µM [4] was 41.5%, the viability at 10 µM [5] was 85.5% and the inhibition in vivo at 50 mg/kg (Rattus norvegicus [6]) was 49%. The inhibition in vivo at 50 mg/kg (Rattus norvegicus [7]) was 23%.

`CC(=O)c1nc(C(=O)NCCc2c[nH]c3ccccc23)cs1` [BACILLAMIDE A] showed an inhibition in vivo at 50 mg/kg (Rattus norvegicus [1]) of 42%, a viability at 10 µM [2] of 81.1% and an inhibition in vivo at 50 mg/kg (Rattus norvegicus [3]) of 56%. The viability at 10 µM [4] was 105%, the viability at 10 µM [5] was 85.1% and the inhibition in vivo at 50 mg/kg (Rattus norvegicus [6]) was 46%. It also gave an inhibition in vivo at 50 mg/kg (Rattus norvegicus [7]) of 58%.

In the case of `COc1cccc2c1C(=O)c1c(O)c3c(c(O)c1C2=O)C[C@@](O)(C(=O)CO)C[C@@H]3O[C@H]1C[C@H](N)[C@H](O)[C@H](C)O1` [DOXORUBICIN], the IC50 [8] is reported as 450 nM, the viability at 10 µM [2] is reported as 23.1% and the viability at 10 µM [4] is reported as 22.1%. The viability at 10 µM [5] was 18.7% and the IC50 [10] was 330 nM.

For `COc1ccc2c(c1)c(CC(=O)O)c(C)n2C(=O)c1ccc(Cl)cc1` [INDOMETHACIN], the inhibition in vivo at 50 mg/kg (Rattus norvegicus [1]) was 86%, the inhibition in vivo at 50 mg/kg (Rattus norvegicus [3]) was 84% and the inhibition in vivo at 50 mg/kg (Rattus norvegicus [6]) was 81%. For the same compound, the inhibition in vivo at 50 mg/kg (Rattus norvegicus [7]) was 94%.
